Reference: patent US8221658B2, “Mixed salts of diorganylphosphinic acids and carboxylic acids” (Clariant Finance (BVI) Limited, priority 2007, dated 2012)

What was measured:
[1] = Decomposition in differential thermal analysis (2% weight loss, atmosphere: air); assay type: physicochemical
Procedure: A mixture of 5 g of terephthalic acid and 3.9 g of aluminum trisdiethylphosphinate is reacted for 0.5 h at 350° C., as in example 1.

[2] = under nitrogen; cited from earlier work

| Compound | Decomposition in differential thermal analysis (2% weight loss) [1] [°C] | Evaporation temperature [2] [°C] |
| --- | --- | --- |
| CCP(=O)([O-])CC.O=C([O-])c1ccc(C(=O)[O-])cc1.[Al+3] [Example 4, aluminum mono(diethylphosphinate)terephthalate] | 425 | – |
| CC(C)CP(=O)([O-])CC(C)C.CC(C)CP(=O)([O-])CC(C)C.CC(C)CP(=O)([O-])CC(C)C.[Al+3] [aluminum salt of diisobutylphosphinic acid] | – | 300 to 400 |
| aluminum terephthalate | 298 | – |
| aluminum trisdiethylphosphinate | 355 | 400 to 500 |
